Source: patent publication US20220168300A1, “Methods of Managing Vascular Conditions and Diabetic Peripheral Neuropathies” (Emory University, priority 2019, published 2022)

Key:
[1] = test system: HUVECs, Schwann cells (S16), and DRG neurons (ND7/23); experiment: Quantitative RT-PCR of gene expression in cells cultured in diabetic (high glucose) condition; details: in vitro experimental data using cells
Procedure: To determine effects of different types of HDAC inhibitors on different target cells, cells were cultured in diabetic condition (450 mg/dl glucose, 7 days) and were treated HDAC inhibitors for 7 days.

[2] = test system: streptozotocin (STZ)-induced diabetic mice; experiment: Intraepidermal nerve fiber density (PGP9.5 staining) in hind paw plantar skin; type: in vivo; details: DM+HDACi group
Excerpt: To investigate the preventive therapeutic effects of direct injection of belinostat on diabetic nerves, streptozotocin (STZ)-induced diabetic mice were randomly assigned to solvent-treated (DM) as vehicle controls or HDAC inhibitor-treated (DM+HDACi) groups. […] To evaluate the protective effect of belinostat on diabetic intraepidermal nerve fiber, we stained IENF in hind paw plantar skin with pan-neuronal marker PGP9.5 and counted the number of fibers throughout the epidermis relative to length of tissue.

[3] = test system: streptozotocin (STZ)-induced diabetic mice; experiment: Rotarod performance test; type: in vivo
Procedure: To investigate the preventive therapeutic effects of direct injection of belinostat on diabetic nerves, streptozotocin (STZ)-induced diabetic mice were randomly assigned to solvent-treated (DM) as vehicle controls or HDAC inhibitor-treated (DM+HDACi) groups. […] For rotarod performance test, mice were placed on a rotarod apparatus to assess motor coordination and physical condition. Before the training session, each mouse was habituated to stay on the spindle with slow constant speed for 5 min. Mice were trained for 5 min at 45 rpm before measurement. The horizontal rod rotating by 45 rpm and the maximal length of observation time for each trial was 5 min.

[4] = test system: streptozotocin (STZ)-induced diabetic mice; experiment: Tactile allodynia (von Frey hair testing); type: in vivo
Procedure: To investigate the preventive therapeutic effects of direct injection of belinostat on diabetic nerves, streptozotocin (STZ)-induced diabetic mice were randomly assigned to solvent-treated (DM) as vehicle controls or HDAC inhibitor-treated (DM+HDACi) groups. […] To investigate preventive effects of belinostat in diabetic neuropathy, tactile response threshold, thermal withdrawal latency, and rotarod performance were tested. For assay of tactile allodynia, mice were transferred to a glass cage with a wire mesh floor allowing access to the plantar surface of the hind paws. Behavioral accommodation was allowed for approximately 15 min until cage exploration and major grooming activities ceased.

[5] = Blood glucose and body weight in diabetic mice; type: in vivo; details: 50 mg/kg/day intraperitoneal for 4 weeks
Procedure: To investigate the preventive therapeutic effects of direct injection of belinostat on diabetic nerves, streptozotocin (STZ)-induced diabetic mice were randomly assigned to solvent-treated (DM) as vehicle controls or HDAC inhibitor-treated (DM+HDACi) groups. […] Belinostat was resuspended in 45% (2-hydroypropyl)-beta-cyclodextrin (HP-β-CD) and injected into mice via the intraperitoneal route at 50 mg/kg/day for 4 weeks.

[6] = test system: streptozotocin (STZ)-induced diabetic mice; experiment: Sensory and motor nerve conduction velocities in diabetic neuropathy model; type: in vivo
Procedure: To investigate the preventive therapeutic effects of direct injection of belinostat on diabetic nerves, streptozotocin (STZ)-induced diabetic mice were randomly assigned to solvent-treated (DM) as vehicle controls or HDAC inhibitor-treated (DM+HDACi) groups. […] After intraperitoneal injection of belinostat or an equal volume of solvent vehicle (HP-β-CD), both sensory and motor nerve conduction velocities (NCVs) were measured for 18 weeks at every week (n=11-14, each group) from 0 week after treatment. Non-diabetic mice, which received solvent vehicle (HP-j-CD), were used as controls (NDM).

[7] = test system: streptozotocin (STZ)-induced diabetic mice; experiment: Paw thermal withdrawal latency; type: in vivo
Procedure: To investigate the preventive therapeutic effects of direct injection of belinostat on diabetic nerves, streptozotocin (STZ)-induced diabetic mice were randomly assigned to solvent-treated (DM) as vehicle controls or HDAC inhibitor-treated (DM+HDACi) groups. […] For measurement of paw thermal withdrawal latency, mice were placed in an observation chamber on top of the thermal testing apparatus and allowed to acclimate to the warmed glass surface (30° C.) and surroundings for 15 min. The mobile heat source was maneuvered to below the center of the right hind paw and turned on, a process that activates a timer and locally warms the glass surface at a rate of approximately 1° C./s. When the mouse withdrew the paw, movement sensors stopped the timer and turned off the heat source. Right hind paw was measured three times and the mean of three measurements used as a composite source for each mouse. The response latency was converted to the response temperature using a time: floor temperature calibration curve that was constructed each day to allow for day-to-day variations in the surface heating rate.

[8] = test system: streptozotocin (STZ)-induced diabetic mice; experiment: Vascularization of sciatic nerves (FITC-conjugated BSL1); type: in vivo; details: DM+HDACi, 18 weeks after treatment
[9] = test system: streptozotocin (STZ)-induced diabetic mice; experiment: Light and electron microscopy of sciatic nerve myelinated fibers; type: in vivo; details: DM+HDACi
Excerpt: To investigate the preventive therapeutic effects of direct injection of belinostat on diabetic nerves, streptozotocin (STZ)-induced diabetic mice were randomly assigned to solvent-treated (DM) as vehicle controls or HDAC inhibitor-treated (DM+HDACi) groups. […] It was examined whether belinostat could affect the ultrastructure of diabetic nerves, which is characterized by morphological alterations in the myelin sheath, a hallmark of DN. Accordingly, light microscopy and transmission electron microscopy were performed on sciatic nerves obtained at 18 weeks after STZ injection. The alternation of myelination pattern was categorized into four groups: decompaction, infolding, focal lysis, and splitting. […] Axonal atrophy is associated with slowing of nerve conduction but is difficult to distinguish from loss of large diameter axons. A reduced index of circularity and an increased g-ratio supports the axonal atrophy. […] A loss of large diameter axons in the peripheral nerve system is the most frequent consequence of metabolic diseases such as diabetes.

[10] = leading to increases in H3/H4 acetylation in brain tissue; cited from earlier work
Diabetic EPCs (D-EPCs) = experiment: DNA methylation (MSRE-PCR) and gene expression of angiogenic genes in D-EPCs; type: cell-based, rat
Excerpt: Rescue of epigenetic silencing of angiogenic genes in D-EPCs Diabetic EPCs (D-EPCs) have high methylation in the promoter regions of key angiogenic and neurotrophic genes and small molecular epigenetic regulators can reverse these changes, increase gene expression and improve cellular functions. To prepare D-EPCs streptozotocin (STZ) was used to induce diabetic conditions. Differential expression of angiogenic genes was investigated between normal EPCs (N-EPCs) and D-EPCs using an Angiogenesis Microarray kit. The expression of many angiogenic genes was suppressed in D-EPCs. In this disclosure, histone deacetylase (HDAC) inhibitors, i.e., Vorinostat (Zolinza, SAHA), Belinostat (Beleodaq, PXD-101), and Quisinostat (JNJ-26481585), were used. The preliminary experiments were performed using rat EPCs as well as human and rat MSCs. To test the reversible changes of gene expression and epigenetic modifications in D-EPCs by small molecule epigenetic regulators, epigenetic profiling studies were performed using methylation-sensitive restriction enzyme (MSRE)-PCR assays. An HDAC inhibitor, valproic acid (VPA), was used as the epigenetic regulator.

[11] = sciatic nerve 18 weeks after STZ, n=406
[12] = sciatic nerve, P<0.001 versus DM

O=C(/C=C/c1cccc(S(=O)(=O)Nc2ccccc2)c1)NO [Belinostat, (E)-N-hydroxy-3-[3-(phenylsulfamoyl)phenyl]prop-2-enamide]
upregulation of gene expression in vitro, compared to vorinostat and quisinostat [1]: superior properties | number of intraepidermal nerve fibers (IENF) [2]: 30.61±1.83 IENF/mm | rotarod fall latency ([3]; DM+HDACi group, 45 rpm, max 5 min): 254.77 ± 25.23 s | rotarod performance, DM versus DM+HDACi ([3]; FIG. 2C): no significant difference | paw withdrawal threshold (von Frey) ([4]; DM+HDACi group at 3 weeks of diabetes): 0.15 ± 0.09 g | paw withdrawal threshold (von Frey) ([4]; DM+HDACi group at 14 weeks after HDAC inhibitor injection, P<0.001 versus DM): 1.33 ± 0.30 g | paw withdrawal thresholds, effect in words ([4]; FIG. 2A, 14 weeks after belinostat injection): recovered to nondiabetic group | blood glucose levels and animal body weight compared to DM group [5]: did not significantly alter | sensory NCV ([6]; DM+HDACi group, over 15 weeks, 50 mg/kg/day i.p. for 4 weeks, P<0.001 versus DM): 34.76±0.61 m/s | motor NCV ([6]; DM+HDACi group, over 15 weeks, 50 mg/kg/day i.p. for 4 weeks, P<0.05 versus DM): 51.15±2.60 m/s | nerve conduction velocities (NCVs), effect in words ([6]; FIG. 1A, direct injection, diabetic mice): improved | motor NCVs, effect in words ([6]; FIG. 1B, diabetic mice over 15 weeks): significantly improved | paw withdrawal temperature ([7]; DM+HDACi group at 12 weeks of diabetes, P<0.001 versus DM): 34.30±0.24 °C | thermal withdrawal latency, effect in words ([7]; FIG. 2B, HDAC treated group): maintained | vascularity in sciatic nerves [8]: increased vascularity | g-ratio of myelinated sciatic nerve [9]: 0.65±0.0044 | reduction of axonal circularity compared to NDM ([9]; sciatic nerve): 10.3% | altered myelination pattern: decompaction [9, 11]: 6.35% | altered myelination pattern: focal lysis [9, 11]: 7.22% | altered myelination pattern: infolding [9, 11]: 1.49% | altered myelination pattern: splitting [9, 11]: 0% | axon diameter of myelinated axons [9, 12]: 4.17 ± 0.1 µm | index of circularity of axon [9, 12]: 0.70

O=C(CCCCCCC(=O)Nc1ccccc1)NO [SAHA, suberoylanilide hydroxamic acid]
blood-brain-barrier (BBB) crossing [10]: can cross the blood-brain-barrier

CCCC(CCC)C(=O)O [VPA, valproic acid]
angiogenic gene expression (Diabetic EPCs (D-EPCs)): enhanced gene expression | DNA methylation at promoters of angiogenic genes (Diabetic EPCs (D-EPCs); MSRE-PCR): reduced DNA methylation
